Values quoted from earlier work as cited in publication PMC2933614, “Quantitative in vitro and in vivo pharmacological profile of CE-178253, a potent and selective cannabinoid type 1 (CB1) Receptor Antagonist” (BMC Pharmacology, 2010).

How the values were obtained:
[1] = design: method as in PMID 12055133; settings: 0.5 mg/kg; 2-AG-mediated hyperphagia; cited from earlier work
CB1 receptor = system: CB1 receptor; design: method as in PMID 17327489; settings: cited from earlier work

Q: For `Cc1c(C(=O)NN2CCCCC2)nn(-c2ccc(Cl)cc2Cl)c1-c1ccc(Cl)cc1` [SR141716A], which “Attenuation of FI” value [1] is on record?
A: ~ 50%

Q: Which “Receptor occupancy required for maximal weight loss efficacy” value (CB1 receptor) does the source give for `C[C@H](NC(=O)C(C)(C)Oc1ccc(C(F)(F)F)cn1)[C@@H](Cc1ccc(Cl)cc1)c1cccc(C#N)c1` [taranabant] here?
A: 60-90%
